In patent publication US20100204219A1, “AROMATIC 1,4-DI-CARBOXYLAMIDES AND THEIR USE” (priority 2006, published 2010):

Columns and labels:
Assay type in all cases: binding
Settings in all cases: Example 1
[1] = target: T1, βCat-BCL9 (beta-Catenin/BCL9-BCL9L interaction) (Homo sapiens, UniProt P35222); test: ELISA based protein-protein interaction assay, βCat-BCL9
T1 sequence (P35222 1-781): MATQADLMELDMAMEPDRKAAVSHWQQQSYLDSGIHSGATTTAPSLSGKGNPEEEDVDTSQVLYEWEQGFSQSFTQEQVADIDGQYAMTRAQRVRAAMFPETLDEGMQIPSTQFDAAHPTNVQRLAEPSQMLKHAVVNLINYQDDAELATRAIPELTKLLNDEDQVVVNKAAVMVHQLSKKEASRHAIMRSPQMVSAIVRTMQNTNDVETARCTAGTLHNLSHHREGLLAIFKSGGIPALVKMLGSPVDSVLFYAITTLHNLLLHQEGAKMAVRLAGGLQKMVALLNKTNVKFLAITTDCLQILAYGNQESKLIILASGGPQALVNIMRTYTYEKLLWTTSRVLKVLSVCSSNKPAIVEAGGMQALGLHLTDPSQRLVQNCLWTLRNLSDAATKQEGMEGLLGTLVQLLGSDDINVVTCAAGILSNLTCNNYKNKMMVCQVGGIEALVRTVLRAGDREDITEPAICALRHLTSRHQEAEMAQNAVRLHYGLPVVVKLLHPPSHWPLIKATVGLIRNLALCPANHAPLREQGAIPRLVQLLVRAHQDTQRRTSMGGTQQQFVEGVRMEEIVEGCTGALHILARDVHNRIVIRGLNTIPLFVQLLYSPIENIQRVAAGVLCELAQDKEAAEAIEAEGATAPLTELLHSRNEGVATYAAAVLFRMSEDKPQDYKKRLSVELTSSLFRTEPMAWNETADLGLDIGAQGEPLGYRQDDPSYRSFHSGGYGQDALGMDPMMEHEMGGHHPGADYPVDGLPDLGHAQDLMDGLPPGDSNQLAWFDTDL
Description: (§1) cDNAs including the binding domains of Lgs and beta-Catenin were fused down-stream of glutathione-S-transferase (GST) cDNA in pGEX-4T inducible bacterial expression vector (Pharmacia). Similar recombinant DNA constructs were generated in the pET-32a(+) vector (Novagen) for expression of fusion protein containing the Thioredoxine-6His tag at their N-terminus. Fusion proteins were produced in BL21 bacteria (e.g. Stratagene) following manufacturer's recommendation.
(§2) To isolate the produced fusions protein, bacteria were ground in aluminum oxide (Sigma, A2039) and the resulting powder extracted in lysis buffer (140 mM NaCl, 10 mM Na2HPO4, 1.8 mM KH2PO4, 2.7 mM KCl, 1 mM EDTA, 1% Triton-X-100, 1 mM DTT and protease inhibitors) under rotation for 30 minutes. Supernatants were cleared by centrifugation then filtered on a 0.45 μm membrane before protein purification. For GST tagged protein, lysate were processed on glutathione agarose beads following manufacturer's recommendation (Amersham Pharmacia) and purified proteins eluted in 50 mM Tris-Cl, 10 mM reduced glutathione pH8.0. For thioredoxine-6His fusions, tagged proteins were purified from the lysate on a nickel chelating column (e.g. Hitrap chelating, G.E. Healthcare) using an HPLC system (e.g. Akta Prime, G.E. Healthcare) and eluted under increasing concentration of imidazole. The purified proteins solution was dialyzed against PBS before use. The quality of the preparations was checked by SDS-gel electrophoresis by standard methods well known by persons skilled in the art.
(§3) Compound preparation: Compounds can be prepared as 25 mM stock in DMSO and diluted in DMSO to reach final test concentrations of up to 100 μM. Final DMSO concentration in the assay is 5%.
(§4) 100 μl of GST fusion protein (e.g. GST-βCatenin) diluted to the appropriate concentration in phosphate buffer saline are added per well to a 96 well plate with high protein binding capacity (e.g. Nunc Maxisorp) and placed at 4° C. overnight. The following day the liquid in the wells is discarded and 150 μl 3% bovine serum albumin (BSA) in PBS are added to each well and incubated at room temperature for 2 hours under moderate shaking. This solution is then discarded and each well washed twice with 200 μl PBS. After carefully discarding the second wash, a mixture of 5 μl compound dilution and 95 μl 6His fusion protein (e.g. 6His-Bcl9) diluted to the appropriate concentration in PBS is added to each well. The plate is then incubated for 1 hour at room temperature under moderate shaking. This protein solution is then discarded and the wells washed 3 times with 200 μl 0.1% Tween-20 solution in PBS. After carefully discarding the final wash, 100 μl of anti 6His antibody conjugated to the horse-radish peroxidase (e.g. Roche antibody 11965085001) at the appropriate dilution in 1% BSA in PBS is added to the wells and the plate incubated for 1 hour at room temperature under moderate shaking. This solution is then discarded and the wells washed 3 times with 200 μl 0.1% Tween-20 solution in PBS. After carefully discarding the final wash, 100 μl of HRP substrate […] (TMB) in solution (e.g. Sigma T0440) is added to the wells and the plate incubated up to 30 minutes in the dark at room temperature. The reaction is stopped by addition of 100 μl of 2N HCl to each well and the optical density is measured at 450 nm and 630 nm.

[2] = target: T2, βCat-ECad (E-Cadherin-βCatenin interaction) (Homo sapiens, UniProt P35222); test: ELISA based protein-protein interaction assay, βCat-ECad
T2 sequence (P35222 134-671 limits assumed): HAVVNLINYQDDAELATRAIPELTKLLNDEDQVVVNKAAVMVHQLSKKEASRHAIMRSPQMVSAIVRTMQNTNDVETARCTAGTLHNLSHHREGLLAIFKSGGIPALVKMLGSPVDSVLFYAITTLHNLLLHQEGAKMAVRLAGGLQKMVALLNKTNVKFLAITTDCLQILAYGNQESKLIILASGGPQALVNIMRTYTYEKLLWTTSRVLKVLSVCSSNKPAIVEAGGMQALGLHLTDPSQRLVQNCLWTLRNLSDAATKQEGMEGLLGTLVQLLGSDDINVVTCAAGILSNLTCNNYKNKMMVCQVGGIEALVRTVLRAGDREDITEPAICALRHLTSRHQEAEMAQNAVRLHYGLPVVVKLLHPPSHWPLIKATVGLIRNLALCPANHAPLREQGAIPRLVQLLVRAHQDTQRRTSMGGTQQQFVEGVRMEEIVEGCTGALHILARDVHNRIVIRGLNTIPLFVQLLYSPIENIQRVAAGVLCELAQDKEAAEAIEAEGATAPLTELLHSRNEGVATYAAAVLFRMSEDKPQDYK
Description: as §1, §2, §3, §4

[3] = target: T3, βCat-TCF4 (Tcf-4-βCatenin interaction) (Homo sapiens, UniProt P35222); test: ELISA based protein-protein interaction assay, βCat-TCF4
T3 sequence (P35222 141-664 limits assumed): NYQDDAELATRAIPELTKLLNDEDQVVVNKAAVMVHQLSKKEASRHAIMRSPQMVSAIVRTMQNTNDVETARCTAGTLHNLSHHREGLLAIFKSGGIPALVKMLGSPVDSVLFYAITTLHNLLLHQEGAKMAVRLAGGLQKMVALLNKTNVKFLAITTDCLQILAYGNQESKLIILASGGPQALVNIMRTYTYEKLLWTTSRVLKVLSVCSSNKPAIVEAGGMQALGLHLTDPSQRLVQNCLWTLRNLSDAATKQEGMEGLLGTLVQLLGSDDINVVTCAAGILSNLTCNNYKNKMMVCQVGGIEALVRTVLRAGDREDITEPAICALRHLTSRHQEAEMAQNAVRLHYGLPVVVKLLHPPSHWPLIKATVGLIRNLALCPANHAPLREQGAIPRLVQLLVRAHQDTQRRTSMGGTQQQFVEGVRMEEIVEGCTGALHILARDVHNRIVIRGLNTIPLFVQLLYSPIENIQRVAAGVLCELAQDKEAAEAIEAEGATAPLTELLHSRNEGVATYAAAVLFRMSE
Description: as §1, §2, §3, §4

Structure (SMILES) | IC50 [1] [µM] | IC50 [2] [µM] | IC50 [3] [µM]
Cc1nnc(NC(=O)c2ccc(C(=O)Nc3nnc(C)s3)nc2)s1 [TGC0011344] | 86 | 41.4 | 119
N#Cc1ccc(NC(=O)c2ccc(C(=O)Nc3ccc(C#N)cc3)cc2)cc1 [TGC0012303] | 5 | > 10 | > 10
COC(=O)c1ccc(NC(=O)c2cc(OC)c(C(=O)Nc3ccc(C(=O)OC)cc3)cc2OC)cc1 [TGC0012302] | 94 | > 100 | > 100
COc1cccc(NC(=O)c2ccc(C(=O)Nc3cccc(OC)c3)nc2)c1 [TGC0011280] | > 100 | 21 | 23
COc1cccc(C(=O)Nc2ccc(-c3cnc(-c4ccc(NC(=O)c5cccc(OC)c5)cc4)nc3)cc2)c1 [TGC0011528] | > 50 | > 50 | > 50
O=C(NCc1ccco1)c1ccc(C(=O)NCc2ccco2)nc1 [TGC0011428] | > 50 | > 50 | > 50
O=C(NCc1ccc2c(c1)OCO2)c1ccc(C(=O)NCc2ccc3c(c2)OCO3)nc1 [TGC0011430] | > 50 | > 50 | > 50
O=C(Nc1ccc2oc(=O)ccc2c1)c1ccc(C(=O)Nc2ccc3oc(=O)ccc3c2)cc1 [TGC0012296] | 3 | > 10 | > 10
CC(=O)c1ccc(NC(=O)c2ccc(C(=O)Nc3ccc(C(C)=O)cc3)nc2)cc1 [TGC0011285] | 6 | > 10 | > 10
COc1ccc(CCNC(=O)c2ccc(C(=O)NCCc3ccc(OC)c(OC)c3)nc2)cc1OC [TGC0011342] | > 50 | > 50 | > 50
CC(=O)Nc1ccc(-c2cnc(-c3ccc(NC(C)=O)cc3)nc2)cc1 [TGC0011524] | > 100 |  | 
COC(=O)c1ccc(NC(=O)c2ccc(C(=O)Nc3ccc(C(=O)OC)cc3)nc2)cc1 [TGC0011288] | 2 | > 10 | > 10

Results, then the molecule that gave them:

IC50 [1] [µM] | IC50 [2] [µM] | IC50 [3] [µM] | Structure (SMILES)
68 | > 100 | > 100 | CCCC(=O)Nc1ccc(-c2cnc(-c3ccc(NC(=O)CCC)cc3)nc2)cc1 [TGC0011566]
> 50 | 21 | 22 | COC(=O)c1ccc(NC(=O)c2ccc(C(=O)Nc3ccc(C(=O)OC)cc3Cl)nc2)c(Cl)c1 [TGC0011605]
38 |  | > 100 | COC(=O)c1cc(NC(=O)c2ccc(C(=O)Nc3cc(C(=O)OC)cc(C(=O)OC)c3)nc2)cc(C(=O)OC)c1 [TGC0000160]
29 | > 100 | > 100 | O=C(Nc1cccnc1)c1ccc(C(=O)Nc2cccnc2)nc1 [TGC0011423]
> 100 |  |  | O=C(Nc1cccnc1O)c1ccc(C(=O)Nc2cccnc2O)nc1 [TGC0012261]
> 10 |  |  | O=C(NCc1ccc(Cl)cc1)c1ccc(C(=O)NCc2ccc(Cl)cc2)nc1 [TGC0011339]
> 50 |  |  | O=C(c1ccc(C(=O)N2CCOCC2)nc1)N1CCOCC1 [TGC0011426]
> 100 |  |  | CC(C)(C)C1CCc2c(sc(NC(=O)c3ccc(C(=O)Nc4sc5c(c4C#N)CCC(C(C)(C)C)C5)nc3)c2C#N)C1 (stereo not shown) [TGC0011343]
